The text below walks through data of patent US12447191B2, “Topical application of polypeptide in the treatment of skin damage” (WUHAN YICHENG BIOTECHNOLOGY CO., LTD., priority 2020, dated 2025).

For experiment [1], the system named is deep II degree burn (scald wound). Nature of the experiment: Animal Experiment 1: rat scald (deep II degree burn) model. In kind it is in vivo, SD rats. Particulars: after 14 days of treatment; smeared twice a day on scald wound; other side untreated control. As to the method: The following will verify the therapeutic function of the medicament prepared in embodiments 1 to 3 on trauma and burns through experiments. The pharmacodynamic effects of polypeptide drugs were evaluated by establishing a rat burn model or a rat trauma model. Experimental Purpose: to study the therapeutic effect of polypeptide drug of the invention on scald. Experimental Animals: SD rats, half male and half female, 200 g±10 g. The Modeling Scheme: the rats' back were depilated with 10% barium sulfide the day before the experiment, and anesthetized by intraperitoneal injection before scalding. The rat models were made with a constant temperature and pressure scald apparatus. After scalding, 5 ml lactate Ringer's solution was intraperitoneally injected immediately to prevent shock. The criteria for successful modeling: disappearance of local epidermis; expansion of blood vessels in epidermis, dermis and subcutaneous tissue; edema of subcutaneous tissue; infiltration of acute and chronic inflammatory cells in dermis and subcutaneous tissue; the above description is a deep II degree burn. Animal Grouping: 8 SD rats in total Ointment Group (Ointment prepared in embodiment 2): 4 rats, half male and half female, scalded on both sides of the body. After scalding, one side was administered, and the other side was used as control. […]

Another experiment concerns HaCAT cells. In words: Cell Differentiation Experiment. In kind it is cell-based, human. Particulars: 10 μL polypeptide (10 mg/ml), 48 h. As to the method:
1. Cell Resuscitation: • (1) HaCAT cells (human immortalized epidermal cells, purchased from Wuhan University Cell Preservation Center, GDC106) are taken out of liquid nitrogen, quickly put into a 37° C. water bath, and gently shake the cryopreservation tube to dissolve the cryopreservation solution;
(2) After dissolution, the HaCAT cells were transferred to a centrifuge tube containing 5 ml of culture medium. The cells were collected by centrifugation, centrifuged at 1000 rmp at room temperature for 5 min, and the supernatant was discarded;
(3) The HaCAT cells were suspended in a complete medium containing 10% fetal bovine serum, inoculated into a culture dish, gently blown and mixed, and cultured at 37° C. and 5% CO2 saturated humidity.
When the cell density reaches 80%, the HaCAT cells will be subcultured:
(1) Discard the culture medium and wash it once with PBS;
(2) Add 1-2 ml 0.25% trypsin to digest the cells. Observe under the microscope. Digest for 1-2 min. It can be seen that the cells are separated from each other and become round, that is, the digestion is completed;
(3) Quickly discard the trypsin, add the complete culture medium, blow the cells to make a single cell suspension, pass the passage in a ratio of 1:3, and expand the culture under 37° C. and 5% CO2 saturated humidity. […]

No end group written: not given here.

Consider MPYSTELIFYIEMDP [polypeptide], for which the “Photo observation of wound healing” value in experiment [1] was “can obviously promote the wound healing”. For the same sequence, in the experiment on HaCAT cells, the “Differentiation of HaCAT cells (morphology on photos)” value is on record as “some cells are differentiated”.
